# Data published in US10478421B1, “Sortilin binding compounds, formulations, and uses thereof” (University of Florida, priority 2016, dated 2019).
# Several values for one entry are separate records, joined by “and”; a condition that tells them apart may be missing. Identical values can stand only once.
# How the values were obtained:
# hsortilin [1] = molecular target: T1, hsortilin (Homo sapiens, UniProt Q99523); assay: Surface plasmon resonance of NT and cpd984 on immobilized hsortilin (Ni-NTA chip, Example 1); assay type: binding
# T1 construct: Human sortilin (hsortilin) (Ser78-Asn755) with C-terminal 6-His tag; purchased R&D Systems, Inc. (Minneapolis, Minn.)
# T1 sequence (Q99523 78-755): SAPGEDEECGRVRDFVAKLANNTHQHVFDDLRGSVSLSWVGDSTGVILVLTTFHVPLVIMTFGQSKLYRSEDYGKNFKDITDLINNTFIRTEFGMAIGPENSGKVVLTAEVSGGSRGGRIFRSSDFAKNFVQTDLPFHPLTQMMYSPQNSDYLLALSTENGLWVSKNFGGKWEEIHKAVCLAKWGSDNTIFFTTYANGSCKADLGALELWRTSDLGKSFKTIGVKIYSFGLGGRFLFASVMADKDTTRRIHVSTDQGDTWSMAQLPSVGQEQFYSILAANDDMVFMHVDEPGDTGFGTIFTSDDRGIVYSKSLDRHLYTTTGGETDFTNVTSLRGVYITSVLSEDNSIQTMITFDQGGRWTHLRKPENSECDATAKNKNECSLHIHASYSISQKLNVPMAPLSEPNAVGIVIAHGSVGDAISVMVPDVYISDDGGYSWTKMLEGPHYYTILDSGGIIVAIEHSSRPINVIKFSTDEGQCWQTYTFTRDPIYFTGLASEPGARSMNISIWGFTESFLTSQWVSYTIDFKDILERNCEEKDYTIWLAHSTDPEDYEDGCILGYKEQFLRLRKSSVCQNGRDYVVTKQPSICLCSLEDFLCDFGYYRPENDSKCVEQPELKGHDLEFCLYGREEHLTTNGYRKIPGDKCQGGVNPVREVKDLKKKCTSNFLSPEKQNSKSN
# Procedure: Surface plasmon resonance measurements were performed on a Biacore T200 instrument equipped with Ni-NTA sensor chips with ˜6800 response units (RU) for hsortilin covalently immobilized to the surface. HBS-DMSO running buffer (10 mM Hepes pH 7.4, 150 mM NaCl, 1% DMSO) was used at a flow rate of 30 μl/min and injections performed with times for association of 90 s, and dissociation of 300 s, followed by injection of buffer to regenerate the hsortilin surface. Binding was expressed in relative RU; the difference in response between the immobilized protein flow cell and the corresponding control flow cell.
# hsortilin [2] = molecular target: T1, hsortilin; assay: Liposome floatation assay of hsortilin binding to PIP3 liposomes; conditions: increasing concentrations of cpd984
# Procedure: Unilamellar liposomes containing specific lipid compositions were produced using lipids dissolved in chloroform that were mixed according to mole percentages of 2.6 μmoles total phospholipid. Lipids were dried and desiccated overnight followed by incubation with PBS (2.6 ml) for 1 h. Lipids were resuspended by vortexing and disrupted by sonication for 30 min. To measure binding, a liposome floatation assay was used by adding concentrations 50 nM or 100 nM hsortilin to liposomes (150 μl) containing 5% PIP3, 20% PE and 75% PC; 10% PIP3, 20% PE, 70% PC; or 0% PIP3, 80% PC, and 20% PE as described. Samples containing 50 nM or 100 nM protein and liposomes in the presence and absence of cpd984 were incubated for 10 min at 30° C. and 630 μl of 1.65 M sucrose/PBS was added. Samples were overlaid with 630 μl of 0.75 M sucrose/PBS, and PBS to the top of the tube and centrifuged (200,000×g, 90 min, 4° C.), and floated liposomes recovered from the 0.75 M sucrose layer. Liposomes at the interface of the top and second fraction were recovered and diluted in 2 ml of PBS and re-isolated by centrifugation (16,000×g, 20 min, 4° C.). 50 μl PBS and 20 μl 5×SDS sample buffer was added to the final liposome pellet. Bound proteins were resolved by SDS-PAGE and detected by western immunoblotting following transfer to PVDF membranes.
# human sortilin = molecular target: T2, human sortilin (Homo sapiens, UniProt Q99523); assay: Thermophoresis binding to human sortilin
# T2 sequence (Q99523 78-831): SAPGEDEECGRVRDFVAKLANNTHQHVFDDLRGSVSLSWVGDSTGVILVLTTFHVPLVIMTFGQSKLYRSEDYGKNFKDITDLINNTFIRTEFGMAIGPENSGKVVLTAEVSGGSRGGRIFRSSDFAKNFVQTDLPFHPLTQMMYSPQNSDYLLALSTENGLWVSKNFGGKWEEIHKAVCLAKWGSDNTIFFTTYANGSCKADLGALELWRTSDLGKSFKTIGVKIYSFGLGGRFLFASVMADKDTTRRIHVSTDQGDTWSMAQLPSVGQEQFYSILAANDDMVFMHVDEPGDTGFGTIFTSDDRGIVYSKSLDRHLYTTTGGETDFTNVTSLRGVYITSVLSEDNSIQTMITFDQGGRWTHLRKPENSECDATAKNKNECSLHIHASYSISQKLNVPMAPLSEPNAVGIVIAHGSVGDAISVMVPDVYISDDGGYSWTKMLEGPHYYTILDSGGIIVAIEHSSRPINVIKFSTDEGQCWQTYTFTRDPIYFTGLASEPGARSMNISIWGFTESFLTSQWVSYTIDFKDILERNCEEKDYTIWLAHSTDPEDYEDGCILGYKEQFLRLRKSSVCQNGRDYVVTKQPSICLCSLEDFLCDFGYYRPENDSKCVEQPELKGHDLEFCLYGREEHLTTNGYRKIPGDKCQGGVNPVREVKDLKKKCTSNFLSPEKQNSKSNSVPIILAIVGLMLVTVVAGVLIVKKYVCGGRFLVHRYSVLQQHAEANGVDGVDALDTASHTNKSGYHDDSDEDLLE
# Procedure: Due to inherent fluorescence of 541 small molecule, thermophoresis was performed in two different buffer conditions (PBS n=3 and MST n=2) and at two sets of concentration ranges. […] SPR indicates a high and low affinity binding site of cpd984 to human sortilin of hsortilin with Kd of about 200 μM and about 20 nM.
smiles,measurement,setting,value
"CN1CCC[C@H]1C(=O)Nc1cccc(NC(=O)CCc2ccccc2)c1 [cpd984, (2S)-1-methyl-N-{3-[(3-phenylpropanoyl)-amino]phenyl} pyrrolidine-2-carboxamide]",SPR binding response,hsortilin [1]; 100 nM NT injected with 500 μM cpd984,64.1 RU and 64.7 RU
same,averaged RU of NT co-injected with 984,"hsortilin [1]; 100 nM NT with 500 μM cpd984, average",64.4 RU
same,increase in binding to hsortilin for co-injected NT over the combination of NT and cpd984 alone,"hsortilin [1]; 100 nM NT, 500 μM cpd984",14.5 RU
same,SPR binding response,hsortilin [1]; 500 μM cpd984 alone,45.1 RU and 44.8 RU
same,RU of 500 μM cpd984 and 100 nM NT (sum of separate injections),hsortilin [1]; sum of averaged responses injected alone,50.0 RU
same,effect on sortilin binding to PIP3 liposomes,hsortilin [2],increased sortilin binding to PIP3 liposomes
same,Kd,human sortilin; high affinity binding range,0.007 µM
same,Kd,human sortilin; low affinity binding range,100 to 300 µM
